Paper PMC8694143 (Microbiology Spectrum, 2021)
No end group written: not given here.

What was measured:
panel of 7 MRSA strains = assay: Bactericidal activity time course, MRSA panel; type: cell-based, Staphylococcus aureus
Protocol: (§1) Time-dependent inhibition of pathogens was measured using standing bacterial cultures treated with 2× MIC. Overnight cultures were diluted to 10^4 or 10^7 CFU/mL in 2 mL of MH broth supplemented with the appropriate peptide concentration or sterile water as a control. Standing cultures were then incubated at 37°C and 100 μL aliquots were removed at specified time intervals. For the panel of 7 MRSA strains, treatment intervals of 30 min, 4 h, 8 h, and 24 h were used. For MRSA ATCC 33592, ATCC 1683, and S. pseudintermedius SPC002, shorter intervals included 5, 30, 60, 120, 240, and 360 min. The 100-μL aliquots were plated using serial dilutions as necessary on LB agar, and CFU were counted as a measure of bacterial viability after 24 h. To normalize cell viability data, surviving cells in CFU/mL were compared to the initial bacterial inoculum of each strain and then expressed as a percentage of that concentration. All experiments were performed in triplicate with values reported as the mean with standard deviations. Statistical differences in the observed viability of bacteria treated with STIP3-29 were analyzed using a paired two-tailed Student’s t test comparing the pretreatment (0 h) viability to those observed at posttreatment time points using Stata v17.0 software.

sheep red blood cells = assay: Hemolytic activity assay; type: cell-based; details: peptides at 100 μg/mL, 1 h, relative to the δ-toxin and other STIPs
Protocol: Thirty-five percent defibrinated sheep’s blood (vol/vol) was centrifuged for 5 min at 4,000 rpm to harvest red blood cells. The cells were washed three times with PBS and harvested by centrifugation prior to dilution to 15% (vol/vol) in PBS in order to evaluate peptide-mediated hemolysis. The assay was performed in 96-well microtiter plates using peptides at 100 μg/mL in a 200-μL volume. […] was used as a negative control and Triton X-100 (0.1% vol/vol) was used as a positive control for complete lysis. After 1 h of incubation, the 96-well microtiter plates were centrifuged at 4,500 rpm for 10 min and a 150 μL aliquot of the supernatant from each sample was carefully transferred to a new 96-well plate. The absorbance of the supernatant was then measured at 540 nm using a Varioskan Lux plate reader (Thermo Scientific). The hemolytic activity is reported relative to complete lysis (%) obtained using Triton X-100. Experiments were performed in triplicate, and statistical differences in hemolysis were measured using an unpaired two-tailed Student’s t test to compare the STIPs and deformylated δ-toxin to the formylated δ-toxin.

3D EpiDerm skin tissues = assay: Tissue cytotoxicity, alamarBlue; type: cell-based, human; details: 250 μg/mL (40-fold the MIC), 24 h, data not shown
Protocol: Cytotoxicity was measured using the 3D EpiDerm skin tissues and HeLa (ATCC CCL-2) cells using a fluorescent reporter of cell viability, alamarBlue (ThermoFisher Scientific). 3D EpiDerm skin tissues (MatTek EPI-200-AFAB) were transferred to a 12-well plate containing 600 μL of AFAB-assay medium supplemented with 10% vol/vol alamarBlue. […] HeLa cells were seeded in a 96-well plate at 2 × 10^4 cells/per well and incubated overnight at 37°C in a humidified 5% CO2 environment to prepare wells at ∼50% confluence for treatments after spent Dulbecco’s modified Eagle’s medium (DMEM) was removed and cells were washed with PBS. Assays were then performed using phenol red-free DMEM supplement with 9% vol/vol alamarBlue and peptide concentrations varying from 3.13 to 200 μg/mL. After a 24 h incubation period, alamarBlue fluorescence emission was measured at 590 nm upon excitation at 560 nm using Varioskan Lux plate reader (Thermo Scientific). Fluorescence intensities of treated cultures were normalized to measurement made for untreated control samples. Experimental data sets were fit to nonlinear dose-response curves to determine IC50 values using Origin 2019.

MRSA 33592 = assay: Transmission electron microscopy; type: cell-based, Staphylococcus aureus; details: 25 μg/mL, PBS, 37°C
Protocol: Samples for TEM imaging were prepared by diluting MRSA 33592 cultures to an OD of 0.5 in PBS before the cell suspension was treated with 25 μg/mL STIP3-29. Treated and untreated cells were incubated at 37°C. Treated samples were prepared from imaging after 30 min and 4 h of treatment. An untreated control sample was prepared after a 4 h incubation period. Cells from the distinct time points or treatments were harvested by centrifugation, fixed for 4 h using 2% glutaraldehyde, postfixed for 1 h with 1% OsO4, dehydrated with a graded ethanol series, embedded in Epon, and en bloc stained with saturated uranyl acetate in 70% ethanol prior to sectioning. Imaging was performed using a Hitachi HT7700 instrument.

[1] = tested on: Pseudomonas aeruginosa ATCC 27853; assay: MIC determination in broth; type: cell-based; details: MH broth
Protocol: (§2) The MICs were measured for bioactive peptides identified from the initial screen. Cation-adjusted Mueller-Hinton (MH) broth was used as the growth medium for MIC determination experiments. Bacterial cultures were diluted to an OD of 5 × 10^−4 (∼10^5 CFU/mL) in 200 μL MH broth mixed with peptides in a 2-fold dilution series arrayed in 96-well plates. Plates were incubated without shaking at 30 or 37°C depending on the organism.

Escherichia coli DH10B = assay: MIC determination in broth; type: cell-based; details: MH broth
Protocol: as §2

[2] = tested on: Mannheimia haemolytica ATCC 33396; assay: MIC determination in broth; type: cell-based; details: MH broth
Protocol: as §2

S. scuri = assay: MIC determination in broth; type: cell-based; details: isolate from the healthy quarter of a dairy cow; MH broth
Protocol: as §2

[3] = tested on: MRSA ATCC 33592, ATCC 1683 and S. pseudintermedius SPC002; assay: Bactericidal activity time course, short intervals; type: cell-based, Staphylococcus aureus; Staphylococcus pseudintermedius; details: 2× MIC, MH broth, 37°C
Protocol: as §1

In the case of TVGGLVKWILKTVKKFA-NH2 [STIP3-29], the “Recovery of viable MRSA cells” value (panel of 7 MRSA strains; 12.5 μg/mL (2× MIC), MH broth, 37°C, 4 h, all 7 MRSA strains, triplicate) is reported as “less than 1%”, the “Mode of antibacterial action from viability time courses” value (panel of 7 MRSA strains; MRSA viability during two time course experiments) is reported as “bactericidal” and the “Change of hemolytic activity” value (sheep red blood cells) is reported as “increase in hemolysis”. The “Tissue-level cytotoxicity, redox-sensitive dye” value (3D EpiDerm skin tissues) was “unable to differentiate STIP3-29-treated and untreated samples”, the “Peptide-induced lysis by TEM, 30 min” value (MRSA 33592; 30 min) was “No peptide-induced lysis was observed” and the “Peptide-induced lysis by TEM, 4 h” value (MRSA 33592; 4 h) was “evidence was present”. The “MIC, Pseudomonas aeruginosa ATCC 27853” value [1] was 50 µg/mL, the “MIC, Escherichia coli DH10B” value (Escherichia coli DH10B) was 12.5 µg/mL and the “MIC, Mannheimia haemolytica ATCC 33396” value [2] was 6.25 µg/mL. For the same substance, the “MIC, S. scuri” value (S. scuri) was 3.13 µg/mL, the “Viability within 5 min of treatment” value ([3]; 5 min, all three strains, normalized to the starting cell count) was no more than 40% and the “Recovery of viable bacteria after 2 h of treatment” value ([3]; 2 h, detection limit 10 CFU/mL) was “inability to recover viable bacteria”.
